# According to patent US12496302B2, “Compositions and methods for the treatment and diagnosis of cancer” (The General Hospital Corporation, priority 2020, dated 2025):
# Columns and labels:
# Assay type in all cases: cell-based
# U2OS (EJ5-GFP) cells = assay: EJ5-GFP NHEJ reporter assay; settings: 2.5 μM/L for 6 h, TRDMT1 wild type cells
# Description: (§1) FIGS. 6A-6E show TRDMT1 Inhibitors specifically sensitizes cells to DNA damage agents. (FIG. 6A) SCE WT cells were transfected with TA-KR and were cultured with 2.5 μM/L, compound YW-1842 or not for 6 hours, m^5C (n=3, 50 cells per replicated, Mean±SD) was stained and quantified. DR-GFP (FIG. 6B) or EJ5-GFP (FIG. 6C) cells were pre-treated with 2.5 μM/L, compound YW-1842 for 6 h or TRDMT1 siRNA for 48 h, or DMSO. Then the cells were transfected with NLS-I-SceI plasmid to induce DSB. The efficiency of HR (FIG. 6B) or NHEJ (FIG. 6C) was analyzed by flow-cytometry (n=3, Mean±SD). (FIG. 6D) After seeding, MCF-7, HCC1954, and HCC1937 cells were pre-treated with or without 2.5 μM/L compound YW-1842 for 6 h, then cultured with chemotherapy drugs (1 μM/L, Cisplatin; 1 μM/L ATRi AZ20; 10 μM/L, ATMi KU55933; 1 μM/L, PARPi Olaparib for 10 days. The survival rate of these cells was analyzed (n=3, Mean±SD). (FIG. 6E) TRDMT1 KO U2OS cells were transfected with GFP-TRDMT1^WT or GFP-TRDMT1^G155V with or without 2.5 μM/L, compound YW-1842, the survival rate of these cells after IR or Cisplatin was shown (n=3, Mean±SD).
# Using a previously described method[Lan, L. et al. The ACF1 complex is required for DNA double-strand break repair in human cells. […] The GFP signal arising from the recombination (HR) or non-homologous end joining (NHEJ) events were measured by flow cytometry.
# [1] = system: MCF-7, HCC1954, and HCC1937 cells; assay: Cell survival assay, YW-1842 combined with DNA damaging agents, IR or H2O2
# Description: as §1
# MCF-7, HCC1954, and HCC1937 cells were pre-treated with or without TRDMT1 inhibitor YW-1842 (2.5 μM) for 6 hrs, then the cells were exposed to IR or H2O2, and cultured for 7-14 days. The survival rate of these cells was analyzed (n=3, Mean±SD)
# Approximately 500 U2OS/TRDMT1 KO U2OS/MCF-7/HCC1954/HCC1937 cells and TRDMT1 siRNA or GFP-TRDMT1 WT/G155V/K251R transfected cells were seeded in 6 cm dish with or without TRDMT1 inhibitors (2.5 μM/L). 6 hrs after seeding, cells were exposed to cisplatin (1134357, Sigma, 1 μM/L), ATMi (KU55933, C9867, Sigma, 10 μM/L), ATRi (AZ20, S7050, Selleck, 1 μM/L) or PARPi (Olaparib, AZD2461, Sigma, 1 μM/L) at indicated concentration or ionizing radiation (IR). After 7-14 days, colonies were fixed and stained with 0.3% crystal violet in methanol, and the number of colonies was counted manually.
# [2] = system: cancer cell lines (HST578, MBAMD231, HCC1937, HCC1954); assay: Cell survival (colony) assay with TRDMT1i alone, Example 19
# Description: FIGS. 14A-14C show TRDMT1i alone reduce cancer cell survival in a dose-dependent manner. (FIG. 14A) Survival rate of HR proficient (HR+) HST578 cancer cells with and without siBRCA1 and/or TRDMT1i YW-1842 at indicated dose. The survival rate of these cells was analyzed (n=3, Mean±SD). (FIG. 14B) Survival rate of MBAMD231 (HR+) and HCC1937 (HRD) cells. The survival rate of these cells was analyzed (n=3, Mean±SD). (FIG. 14C) Cell survival rate in different cancer cell lines via colony-forming assay with the treatment of Imatinib at indicated dose (n=3, mean+/−S.D.). Cell lines are listed in order with the expression level from SYCP2high to SYCP2low.
# HCC1500, HCC1954, BT549, MCF7 and MDAMB468 were cultured in Roswell Park Memorial Institute (RPMI) 1640 Medium (Sigma, R8758) with 10% (vol/vol) fetal bovine serum (FBS, XY Cell Culture, FBS-500) at 37° C., 5% CO2. siBRCA1 (L-003461-00, Dharmacon) was transfected with Lipofectamine RNAiMax (Invitrogen; Carlsbad, CA, USA). PARPi Olaparib (AZD2281/Ku-0059436, Sellekchem, S1060) and Pol theta inhibitor Novobiocin (Sigma) were used.
# Cells were seeded in each 6-cm dish and cultured as described above. They were treated with drugs with indicated dose in medium after seeding. After 7-10 days, colonies were fixed and stained with 0.3% crystal violet in methanol, and the number of colonies was counted manually.
compound,measurement,setting,value
"COc1cc2nc(-n3cc(-c4ccc(S(C)(=O)=O)cc4)cn3)nc(-c3ccsc3)c2cc1OC [YW-1842, 6,7-dimethoxy-2-(4-(4-(methylsulfonyl)phenyl)-1H-pyrazol-1-yl)-4-(thiophen-3-yl)quinazoline]",non-homologous end joining (NHEJ) efficiency,U2OS (EJ5-GFP) cells,no obvious changes
same,survival rate in combination with H2O2 compared to DMSO,"[1]; 2.5 μM, combined with H2O2",decreased the survival rate of all the three cell lines
same,sensitivity to IR in combination,"[1]; 2.5 μM, combined with IR",clear sensitivity enhancement
same,"sensitization to DNA damaging agents (Cisplatin, ATRi AZ20, ATMi KU55933, PARPi Olaparib) compared to single treatment",[1]; 2.5 μM/L pre-treatment 6 h,sensitizes the cells
same,synergy with PARPi Olaparib,"[1]; YW-1842 2.5 μM, Olaparib 1 μM, HCC 1954 cell lines",strong synergy
same,cell killing of HCC1954,"[2]; HCC1954 (HRD, high SYCP2)",efficiently killed HCC1954
same,"cell survival, TRDMT1i alone",[2]; HR-proficient HST578 cells,kills HR-proficient cancer cells HST578 in a dose-dependent manner
same,TRDMT1i sensitivity with BRCA1 knockdown,[2]; HST578 cells with siBRCA1,significantly increased
same,cell killing across cancer cell lines by SYCP2 level and HR status,[2]; cell lines ordered SYCP2high to SYCP2low,killed SYCP2-high cancer cell lines and HR deficient cells the most efficiently
